Results taken from US4885283A, “Phosphinic acid derivatives” (Hoffmann-La Roche Inc., priority 1986, dated 1989).

What was measured:
[1] = target: T1, collagenase obtained from a culture of human synovial fibroblasts (Homo sapiens, UniProt P03956); assay: in vitro inhibition of collagenase (microtitre plate assay, 14C-acetylated collagen type I from rat tail tendons as substrate); type: biochemical; conditions: human synovial fibroblast collagenase, trypsin-activated; 14C-acetylated collagen type I substrate
T1 construct: endogenous in cells; host or cells: culture of human synovial fibroblasts (conditioned medium)
T1 sequence (P03956 100-469): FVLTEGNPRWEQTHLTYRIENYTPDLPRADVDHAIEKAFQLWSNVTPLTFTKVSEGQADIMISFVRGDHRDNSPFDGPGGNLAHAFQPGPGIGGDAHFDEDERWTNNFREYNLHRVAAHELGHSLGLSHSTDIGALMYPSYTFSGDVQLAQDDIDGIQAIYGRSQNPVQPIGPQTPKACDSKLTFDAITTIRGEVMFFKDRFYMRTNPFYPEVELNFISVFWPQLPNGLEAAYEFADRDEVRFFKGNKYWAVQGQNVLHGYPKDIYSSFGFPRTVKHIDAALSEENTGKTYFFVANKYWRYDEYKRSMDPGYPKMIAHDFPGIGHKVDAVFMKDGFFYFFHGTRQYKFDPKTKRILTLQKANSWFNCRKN
Procedure: Collagenase activity was measured using ^14 C-acetylated collagen type I from rat tail tendons as the substrate and employing the microtitre plate assay method of Johnson-Wint, B. Anal. Biochem. (1980), 104, 175. The IC50 is that concentration of a compound of formula I of the invention in the enzyme digestion which reduces substrate cleavage and solubilization to 50% of that achieved by the enzyme alone.
The results obtained in the foregoing test with representative compounds of this invention are compiled in the Table I hereinafter: […]

female rats = assay: in vivo type II collagen/Freund's incomplete adjuvant rat test: hind paw inflammation and radiological change; conditions: 20 mg kg^-1 twice daily for 12 days via jugular vein catheter
Procedure: Groups of female rats received an intradermal injection into the shaved backs of 10×0.1 ml of an emulsion of type II collagen/Freund's incomplete adjuvant. Ten days later the test compound was administered twice daily at a dosage of 20 mg kg^-1 via indwelling jugular vein catheters; dosing was continued for 12 days. Groups of rats which received the intradermal injection, but which were not treated with test compounds, served as the control. The incidence of hind paw inflammation was assessed visually at intervals throughout the test and was expressed as the proportion of the group showing signs of erythema and/or swelling. Radiological change in the ankle region of the hind paws was assessed at the termination of the test and was quantified using an arbitrary scale of from 0=normal to 6=severe change, results being expressed as group means. Statistical analysis was performed using the Mann-Whitney "U" test.

Row | SMILES | IC50 [1] | Inflammation day 4 (female rats; proportion of group showing erythema and/or swelling of hind paw, Control 8/11) | Radiological scores, Tarsus (female rats; scale 0=normal to 6=severe change, group mean at termination, Control 1.75 ± 0.45) | Radiological scores, Talus (female rats; scale 0=normal to 6=severe change, group mean at termination, Control 2.28 ± 0.53)
1 | CNC(=O)[C@H](CC(C)C)NC(=O)C(CC(C)C)CP(=O)(O)CN1C(=O)c2cccc3cccc(c23)C1=O (stereo partly drawn) [Compound C, [(RS)-4-methyl-2-[[(S)-3-methyl-1-(methylcarbamoyl)butyl]carbamoyl]pentyl](1,8-naphthalendicarboximidomethyl)phosphinic acid] | 160 nM | – | – | –
2 | CC(C)CC(CP(=O)(O)CNC(=O)[C@H](CC(C)C)NC(=O)[C@@H]1CCCN1C(=O)OCc1ccccc1)C(=O)N[C@@H](CC(C)C)C(=O)N[C@@H](C)C(=O)O (single isomer, unassigned) [Compound A, N-[N-[(R or S)-2-[[[[[N-[1-[(benzyloxy)carbonyl]-L-prolyl]-L-leucyl]amino]methyl]hydroxyphosphinyl]methyl]-4-methylvaleryl]-L-leucyl]-L-alanine] | 56 nM | – | – | –
3 | CC(C)CC(CP(=O)(O)CN1C(=O)c2cccc3cccc(c23)C1=O)C(=O)NC1CCCCCCCCCCNC1=O (single isomer, unassigned) [Compound D, [(R or S)-4-methyl-2-[[(R or S)-2-oxo-3-azacyclotridecyl]carbamoyl]pentyl](1,8-naphthalenedicarboximidomethyl)phosphinic acid] | 110 nM | 3/12 | 0.64 ± 0.37 | 0.86 ± 0.34
4 | CC(C)C[C@@H](CP(=O)(O)Cn1c(=O)[nH]c2ccccc2c1=O)C(=O)N[C@@H]1CCCCCCCCCCNC1=O (single isomer, unassigned) [Compound E, [[1,4-dihydro-2,4-dioxo-3(2H)-quinazolinyl]methyl][(R or S)-4-methyl-2-[[(R or S)-2-oxo-3-azacyclotridecyl]carbamoyl]pentyl]phosphinic acid] | 220 nM | – | – | –
5 | CNC(=O)[C@H](CC(C)C)NC(=O)C(CC(C)C)CP(=O)(O)CN1C(=O)c2cccc(N)c2C1=O (mixture of isomers) [Compound B, [(3-aminophthalimido)methyl][(RS)-4-methyl-2-[[(S)-3-methyl-1-(methylcarbamoyl)butyl]carbamoyl]pentyl]phosphinic acid] | 600 nM | – | – | –
